Data set [1] is described as follows: Determination of metabolic stability with human liver microsomes. Type of data set: in vitro ADME. The note with it: pooled human liver microsomes, 1 mg/ml protein, 1 μM test compound, 37° C.; for half-life at 1 μM: pH 7.6, read-out: In vitro stability in human liver microsome incubations t½. The source says: Determination of Metabolic Stability with Human Liver Microsomes

In data set [2] the test system is neutrophil elastase activity in U937 cells. In words: Determination of neutrophil elastase activity in U937 cytosolic lysate preparation after incubation with test compound. Type of data set: cell-based, human. On the procedure: Determination of Neutrophil Elastase Activity in U937 Cytosolic Lysate Preparation after Incubation with Test Compound Materials:
Optiplate 384F were purchased from PerkinElmer (Prod. No. #6007270). 24 well Nunclon cell culture plates (No. 142475) and 96 well plates (No. 267245) were from Nunc. Dimethylsulfoxid (DMSO) was from Sigma (Prod. No. D8418). Nonidet-P40 (NP40) was from USBiological (Prod. No. N3500)
Substrate, specific for Neutrophil elastase, was from Bachem (MeOSuc-Ala-Ala-Pro-Val-AMC; Prod. No. I-1270).
Human neutrophil elastase was from Calbiochem (Prod. No. 324681)
Tris-buffer (100 mM Tris; 1M NaCL; pH 7.5)
Tris-buffer+HSA 0.1%; Human Serum Albumin from Calbiochem (Cat#. 126658)
Serine-protease buffer (20 mM Tris; 100 mM NaCL; pH 7.5)+0.1% HSA
Serine protease lysis buffer: 20 mM Tris-HCL; 100 mM NaCl pH 7.5; +0.2% Nonidet-P40;
PBS: phosphate buffered saline, without Ca and Mg, from Gibco
U937 from ECACC (Cat. No. 85011440) cultured in suspension at 37° C. and 5% CO2.
Cell density: 0.2-1 Mio. Cells/ml.
Medium: RPMI1640 GlutaMAX (No. 61870) with 10% FCS from Gibco
Cell Seeding and Treatment:
Compounds in 100% DMSO were diluted in Medium (-FCS) with 10% DMSO and further diluted according to the experiment planned.
20 μl of the compound solution was transferred in the respective wells of the 24 well plate and diluted with 2 ml cell suspension/well containing 1'10^5 cells/ml (final concentration of DMSO=0.1%). Compound dilution factor=100 […]
Frozen lysates were thawn at 37° C. for 10 minutes and stored on ice. Protein content was determined with Bradford protein assay. […]
The increase in fluorescence (Ex360 nm/Em 460 nm) is determined over 30 minutes with a Molecular Device Spectramax M5 Fluorescence Reader. […] The amount of neutrophil elastase (ng/ml) is calculated using the standard curve and the Spectramax software. […] Percent inhibition in the compound-treated lysate samples is calculated relative to the DMSO-treated control-sample (100−(compound-sample*100)/control-sample)
[…] is calculated using Graphpad Prism; nonlinear fitting (log(inhibitor) vs. response—Variable slope).

Data set [3] concerns the target recombinant human Cathepsin K (Homo sapiens (Human), UniProt P43235). The data set is described as follows: Inhibition of human Cathepsin K. Type of data set: biochemical. The note with it: substrate Z-Gly-Pro-Arg-AMC. The text has this: Inhibition of Human Cathepsin K
Materials: Microtiterplates (Optiplate-384 F were purchased from PerkinElmer (Prod. No. 6007270). The substrate Z-Gly-Pro-Arg-AMC was from Biomol (Prod.-No. P-142). L-Cysteine (Prod. No. 168149) was from Sigma. Sodium acetate was from Merck (Prod.-No. 6268.0250), EDTA was from Fluka (Prod.-No. 03680). The inhibitor E-64 was purchased from Sigma (Prod.-No. E3132). The recombinant human Cathepsin K proenzyme was purchased from Biomol (Prod. No. SE-367). All other materials were of highest grade commercially available. […]
5 μL test compound (final concentration 0.1 nM to 100 μM) in aqua bidest (containing 4% DMSO, final DMSO concentration 1%) were mixed with 10 uL of Cathepsin K in assay buffer (final concentration 2 ng/μL) and incubated for 10 min. […] The fluorescence in the wells was determined using a Molecular Devices SpectraMax M5 Fluorescence Reader (Ex 360 nm, Em 460 nm).
Each assay microtiter plate contains wells with vehicle controls (1% DMSO in bidest) as reference for non-inhibited enzyme activity (100% Ctl; high values) and wells with inhibitor (E64 in bidest+1% DMSO, final concentration 1 μM) as controls for background fluorescence (0% Ctl; low values). […]

The target of data set [4] is recombinant human DPPI (Cathepsin C) (Homo sapiens (Human), UniProt P53634). In words: Inhibition of human DPPI (Cathepsin C). Type of data set: biochemical. To be noted: substrate Gly-Arg-AMC. On the procedure:
Inhibition of Human DPPI (Cathepsin C)
Bovine serum albumin (BSA; Prod. No. A3059) and Dithiothreitol (DTT; Prod. No D0632) were from Sigma. […] The DPP1 inhibitor Gly-Phe-DMK was purchased from MP Biomedicals (Prod.-No. 03DK00625). The recombinant human DPPI was purchased from Prozymex. All other materials were of highest grade commercially available.
The following buffers were used: MES buffer: 25 mM MES, 50 mM NaCl, 5 mM DTT, adjusted to pH 6.0, containing 0.1% BSA; TAGZyme Buffer: 20 mM NaH2PO4, 150 mM NaCl adjusted to pH 6.0 with HCl
Then, 5 μL of substrate in MES buffer (final concentration 50 μM) were added. The microtiter plates were then incubated at room temperature for […] Then, the reaction was stopped by adding 10 μL of Gly-Phe-DMK in MES-buffer (final concentration 1 μM).
The analysis of the data was performed by calculating the percentage of fluorescence in the presence of test compound in comparison to the fluorescence of the vehicle control after subtracting the background fluorescence using the following formula: (RFU(sample)−RFU(background))*100/(RFU(control)−RFU(background))
Data from these calculations were used to generate IC50 values for inhibition of DPPI, respectively.

Where [5] appears, read: Homo sapiens, U-937, read-out: Reduction of NE-activity in U937 cells IC50.

Each structure is given as a SMILES string. Read-outs that look alike come from different tables or passages of the source. A value given as a limit tells only on which side of the number the result lay.

Usually IC50 stands for the midpoint of a concentration-inhibition curve.

Chain of recombinant human DPPI (Cathepsin C) (P53634 231-394): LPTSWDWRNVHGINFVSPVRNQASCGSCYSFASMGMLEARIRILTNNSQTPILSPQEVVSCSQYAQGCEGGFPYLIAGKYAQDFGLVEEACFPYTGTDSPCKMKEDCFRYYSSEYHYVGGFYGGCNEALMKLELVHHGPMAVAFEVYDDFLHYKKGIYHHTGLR
Chain of recombinant human DPPI (Cathepsin C) (P53634 395-463): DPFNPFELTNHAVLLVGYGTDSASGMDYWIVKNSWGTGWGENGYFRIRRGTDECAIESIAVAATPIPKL
Chain of recombinant human DPPI (Cathepsin C) (P53634 25-134): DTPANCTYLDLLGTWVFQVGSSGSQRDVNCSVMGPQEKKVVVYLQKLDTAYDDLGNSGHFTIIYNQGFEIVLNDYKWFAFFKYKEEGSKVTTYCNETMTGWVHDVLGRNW
Chain of recombinant human Cathepsin K (P43235 115-329): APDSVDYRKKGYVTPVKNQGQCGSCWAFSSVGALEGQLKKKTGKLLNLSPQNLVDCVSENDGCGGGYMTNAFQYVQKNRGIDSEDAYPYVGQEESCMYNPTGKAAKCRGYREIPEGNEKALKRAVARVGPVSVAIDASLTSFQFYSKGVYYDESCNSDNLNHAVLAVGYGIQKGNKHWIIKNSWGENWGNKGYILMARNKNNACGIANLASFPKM

In the case of `CN1C(=O)Cc2ccc(-c3ccc(CC(C#N)NC(=O)[C@H]4N[C@@H]5CC[C@H]4C5)c(F)c3)cc21` (stereo partly drawn) [Example 15], the “In vitro stability in human liver microsome incubations t½” value (shortened to “In vitro stability”) in data set [1] was 2.17 h.

Regarding `CN1C(=O)Cc2ccc(-c3cc(F)c(C[C@@H](C#N)NC(=O)[C@H]4N[C@@H]5CC[C@H]4C5)cc3F)cc21` [Example 31], in data set [1], the half-life at 1 μM is 1.5 h.

With `N#CC(Cc1ccc(-c2cnn(-c3ccccc3)c2)cc1F)NC(=O)[C@H]1N[C@@H]2CC[C@H]1C2` (stereo partly drawn) [Example 78], the “In vitro stability” value in data set [1] was found to be 2.17 h.

As to `N#C[C@H](Cc1ccc(N2CCN(CC3CCOC3)CC2)cc1F)NC(=O)[C@H]1N[C@@H]2CC[C@H]1C2` (stereo partly drawn) [Example 154], the IC50 in data set [2] (setting [5]) is 4.6 nM; in data set [3], 4600 nM; in data set [4], 13.5 nM. Further, the half-life at 1 μM in data set [1] was over 2.17 h.

Turning to `N#C[C@H](Cc1ccc(-c2ccc(S(=O)(=O)N3CCOCC3)cc2)cc1F)NC(=O)[C@H]1N[C@@H]2CC[C@H]1C2` [Example 217], the IC50 in data set [2] (read-out: Reduction of NE-activity in U937 cells IC50) was 7.5 nM.

Take `CC(C)c1cc(-c2ccc(C[C@@H](C#N)NC(=O)[C@H]3N[C@@H]4CC[C@H]3C4)c(F)c2)ccc1[S+](C)[O-]` (stereo partly drawn) [Example 251]: the IC50 in data set [4] stood at 11.5 nM.

On to `CS(=O)(=O)c1ccc(-c2ccc(C[C@@H](C#N)NC(=O)[C@H]3N[C@@H]4CC[C@H]3C4)c(F)c2)cc1OCC(F)F` [Example 252], for which, in data set [1], the “In vitro stability” value stood at 2.17 h.

For `N#C[C@H](Cc1ccc(N2CCCN3CCCC3C2)cc1F)NC(=O)[C@H]1N[C@@H]2CC[C@H]1C2` (stereo partly drawn) [Example 271], the “In vitro stability” value in data set [1] was 2.17 h.

Take `CS(=O)(=O)c1cc(OCC(F)(F)F)cc(-c2ccc(C[C@@H](C#N)NC(=O)[C@H]3N[C@@H]4CC[C@H]3C4)c(F)c2)c1` [Example 276]: the “In vitro stability” value in data set [1] worked out at 2.17 h.

Consider `CN1CCCN(S(=O)(=O)c2ccc(-c3ccc(C[C@@H](C#N)NC(=O)[C@H]4N[C@@H]5CC[C@H]4C5)c(F)c3)cc2)CC1` [Example 340], for which, in data set [2] (setting [5]), the half-maximal inhibitory concentration (IC50) was found to be 0.8 nM.

As for `CN1CCC(N2C(=O)Cc3ccc(-c4ccc(C[C@@H](C#N)NC(=O)[C@H]5N[C@@H]6CC[C@H]5C6)c(F)c4)cc32)CC1` [Example 346], the “In vitro stability” value in data set [1] is over 2.17 h.

Consider `N#C[C@H](Cc1ccc(N2CC3CCN(C4CCOC4)C3C2)cc1F)NC(=O)[C@H]1N[C@@H]2CC[C@H]1C2` (stereo partly drawn) [Example 348], for which the “In vitro stability” value in data set [1] is 2.17 h.

The values above are taken from patent publication US9713606B2, “Methods for treating pulmonary emphysema using substituted 2-Aza-bicyclo[2.2.1]heptane-3-carboxylic acid (benzyl-cyano-methyl)-amides inhibitors of cathepsin C” (Boehringer Ingelheim International GmbH, priority 2013, dated 2017).
